Measured values: PubChem BioAssay (NCI)
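Dose response: 5 concentrations. Exposure: 48 h. Format: 96-well plates. Endpoint: linear interpolation; highest concentration if not reached. GI50 = concentration required for 50% inhibition of growth. TGI: total growth inhibition.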

Legend:
Assay in all cases: NCI-60 cell line screen, 48 h
[1] = system: SF-268 CNS
[2] = system: OVCAR-8 ovarian
[3] = system: ACHN renal
[4] = system: NCI-H460 lung
[5] = system: UACC-257 melanoma
[6] = system: SK-OV-3 ovarian
[7] = system: HCT-15 colon
[8] = system: SK-MEL-2 melanoma
[9] = system: T-47D breast
[10] = system: A549 NSCLC
[11] = system: MALME-3M melanoma
[12] = system: CAKI-1 renal
[13] = system: TK-10 renal
[14] = system: NCI-H226 lung
[15] = system: COLO 205 colon
[16] = system: RXF 393 renal
[17] = system: OVCAR-4 ovarian
[18] = system: MOLT-4 leukemia
[19] = system: PC-3 prostate
[20] = system: NCI-H522 lung
[21] = system: A498 renal
[22] = system: SNB-19 CNS
[23] = system: RPMI-8226 leukemia
[24] = system: SW-620 colon
[25] = system: SNB-75 CNS
[26] = system: NCI/ADR-RES ovarian
[27] = system: HOP-62 NSCLC
[28] = system: SK-MEL-28 melanoma
[29] = system: U251 CNS
[30] = system: HT29 colon
[31] = system: K-562 leukemia
[32] = system: SN12C renal
[33] = system: SF-539 CNS
[34] = system: DU-145 prostate
[35] = system: LOX IMVI melanoma
[36] = system: HCC-2998 colon
[37] = system: SF-295 CNS
[38] = system: IGROV1 ovarian
[39] = system: EKVX NSCLC
[40] = system: OVCAR-3 ovarian
[41] = system: SK-MEL-5 melanoma
[42] = system: OVCAR-5 ovarian
[43] = system: 786-0 renal
[44] = system: MDA-MB-435
[45] = system: HS 578T breast
[46] = system: KM12 colon
[47] = system: BT-549 breast
[48] = system: HOP-92 NSCLC
[49] = system: HCT-116 colon
[50] = system: NCI-H23 lung
[51] = system: UO-31 renal
[52] = system: CCRF-CEM leukemia
[53] = system: MDA-MB-231 breast
[54] = system: UACC-62 melanoma
[55] = system: HL-60(TB) leukemia

`COc1ccc(Nc2ncccc2C(=O)NCc2cn(Cc3cccc(Oc4ccccc4)c3)nn2)cc1` was tested, and the GI50 [1] was 4.59 µM, the TGI [1] was greater than 100 µM and the GI50 [2] was 3.72 µM. It also gave a TGI [2] greater than 100 µM, a GI50 [3] of 4.79 µM and a TGI [3] greater than 100 µM. The GI50 [4] was 3.52 µM, the TGI [4] was greater than 100 µM and the GI50 [5] was 4.82 µM. The TGI [5] was greater than 100 µM, the GI50 [6] was 3.11 µM and the TGI [6] was 9.63 µM. It also gave a GI50 [7] of 3.93 µM, a TGI [7] greater than 100 µM and a GI50 [8] of 3.66 µM. The TGI [8] was greater than 100 µM, the GI50 [9] was 4.03 µM and the TGI [9] was greater than 100 µM. The GI50 [10] was 3.44 µM, the TGI [10] was greater than 100 µM and the GI50 [11] was 3.8 µM. It also gave a TGI [11] greater than 100 µM, a GI50 [12] of 3.41 µM and a TGI [12] greater than 100 µM. The GI50 [13] was 4.59 µM, the TGI [13] was greater than 100 µM and the GI50 [14] was 3.92 µM. The TGI [14] was greater than 100 µM, the GI50 [15] was 2.86 µM and the TGI [15] was 7.93 µM. For the same molecule, the GI50 [16] was 2.59 µM, the TGI [16] was 7.16 µM and the GI50 [17] was 5.19 µM. It also gave a TGI [17] greater than 100 µM, a GI50 [18] of 2.91 µM and a TGI [18] greater than 100 µM. It also gave a GI50 [19] of 3.86 µM, a TGI [19] greater than 100 µM and a GI50 [20] of 2.13 µM. It also gave a TGI [20] of 5.44 µM, a GI50 [21] of 2.35 µM and a TGI [21] of 8.71 µM. It also gave a GI50 [22] of 3.55 µM, a TGI [22] greater than 100 µM and a GI50 [23] of 4.84 µM. The TGI [23] was greater than 100 µM, the GI50 [24] was 3.86 µM and the TGI [24] was greater than 100 µM. It also gave a GI50 [25] of 3.09 µM, a TGI [25] greater than 100 µM and a GI50 [26] of 2.12 µM. It also gave a TGI [26] of 6.69 µM, a GI50 [27] of 5.07 µM and a TGI [27] greater than 100 µM. It also gave a GI50 [28] of 3.88 µM, a TGI [28] greater than 100 µM and a GI50 [29] of 3.91 µM. It also gave a TGI [29] greater than 100 µM, a GI50 [30] of 3.66 µM and a TGI [30] of 15.4 µM. For the same molecule, the GI50 [31] was 3.48 µM, the TGI [31] was greater than 100 µM and the GI50 [32] was 4.75 µM. For the same molecule, the TGI [32] was greater than 100 µM, the GI50 [33] was 2.79 µM and the TGI [33] was 6.69 µM. It also gave a GI50 [34] of 3.76 µM, a TGI [34] greater than 100 µM and a GI50 [35] of 3.6 µM. It also gave a TGI [35] greater than 100 µM, a GI50 [36] of 2.53 µM and a TGI [36] of 6.85 µM. The GI50 [37] was 2.94 µM, the TGI [37] was greater than 100 µM and the GI50 [38] was 5.89 µM. It also gave a TGI [38] greater than 100 µM, a GI50 [39] of 4.16 µM and a TGI [39] greater than 100 µM. For the same molecule, the GI50 [40] was 2.98 µM, the TGI [40] was 7.59 µM and the GI50 [41] was 2.9 µM. The TGI [41] was greater than 100 µM, the GI50 [42] was 4.23 µM and the TGI [42] was greater than 100 µM. For the same molecule, the GI50 [43] was 5.59 µM, the TGI [43] was greater than 100 µM and the GI50 [44] was 1.71 µM. For the same molecule, the TGI [44] was 4.34 µM, the GI50 [45] was 5.9 µM and the TGI [45] was greater than 100 µM. For the same molecule, the GI50 [46] was 3.43 µM, the TGI [46] was greater than 100 µM and the GI50 [47] was 4.58 µM. The TGI [47] was greater than 100 µM, the GI50 [48] was 5.67 µM and the TGI [48] was greater than 100 µM. It also gave a GI50 [49] of 4.17 µM, a TGI [49] greater than 100 µM and a GI50 [50] of 3.45 µM. The TGI [50] was greater than 100 µM, the GI50 [51] was 3 µM and the TGI [51] was greater than 100 µM. For the same molecule, the GI50 [52] was 3.8 µM, the TGI [52] was greater than 100 µM and the GI50 [53] was 3.09 µM. For the same molecule, the TGI [53] was 8.62 µM, the GI50 [54] was 3.13 µM and the TGI [54] was greater than 100 µM. The GI50 [55] was 2.66 µM and the TGI [55] was greater than 100 µM.
